In PubChem BioAssay (NCI):
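Five concentrations, 48 hours, 96-well plates. GI50: concentration for 50% inhibition of growth. TGI is the concentration that stops growth completely.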

Tests used:
Assay in all cases: inhibition of tumour cell growth, NCI panel, 48 h
UO-31 renal = system: UO-31 renal
UACC-257 melanoma = system: UACC-257 melanoma
SN12C renal = system: SN12C renal
SF-295 CNS = system: SF-295 CNS
OVCAR-3 ovarian = system: OVCAR-3 ovarian
HT29 colon = system: HT29 colon
DU-145 prostate = system: DU-145 prostate
UACC-62 melanoma = system: UACC-62 melanoma
ACHN renal = system: ACHN renal
RPMI-8226 leukemia = system: RPMI-8226 leukemia

`N#Cc1cccc(C2C3=C(COC3=O)N(CCO)c3cc4c(cc32)CCC4)c1` (centres undefined) gave a GI50 (UO-31 renal) of 0.165 µM, a TGI (UO-31 renal) greater than 31.7 µM and a GI50 (UACC-257 melanoma) greater than 50 µM. For the same compound, the TGI (UACC-257 melanoma) was greater than 50 µM, the GI50 (SN12C renal) was 0.261 µM and the TGI (SN12C renal) was greater than 50 µM. For the same compound, the GI50 (SF-295 CNS) was 0.0716 µM, the TGI (SF-295 CNS) was greater than 50 µM and the GI50 (OVCAR-3 ovarian) was 0.123 µM. For the same compound, the GI50 (HT29 colon) was 0.16 µM, the TGI (HT29 colon) was greater than 18.8 µM and the GI50 (DU-145 prostate) was 0.191 µM. For the same compound, the TGI (DU-145 prostate) was 7.29 µM, the GI50 (UACC-62 melanoma) was 0.028 µM and the TGI (UACC-62 melanoma) was greater than 50 µM. The GI50 (ACHN renal) was 0.277 µM, the TGI (ACHN renal) was greater than 50 µM and the GI50 (RPMI-8226 leukemia) was 0.212 µM. It also gave a TGI (RPMI-8226 leukemia) greater than 28.1 µM.

In the case of `O=[N+]([O-])c1ccc(/C=C\c2ccc3c(c2)OCO3)c([N+](=O)[O-])c1`, the TGI (UO-31 renal) is reported as 54.5 µM, the TGI (UACC-257 melanoma) is reported as 32 µM and the TGI (SN12C renal) is reported as 34 µM. The TGI (SF-295 CNS) was 59.1 µM, the TGI (OVCAR-3 ovarian) was 43.1 µM and the TGI (HT29 colon) was 40.3 µM. For the same compound, the TGI (DU-145 prostate) was 47 µM, the TGI (UACC-62 melanoma) was 43.2 µM and the TGI (ACHN renal) was 33.6 µM. It also gave a TGI (RPMI-8226 leukemia) of 19.2 µM.

`O=C(/C=C/c1cccc(Oc2ccc(Cl)cc2)c1)c1ccccc1` gave a GI50 (UO-31 renal) of 17.3 µM, a TGI (UO-31 renal) of 34.1 µM and a GI50 (UACC-257 melanoma) of 185 µM. The TGI (UACC-257 melanoma) was 344 µM, the GI50 (SN12C renal) was 28.4 µM and the TGI (SN12C renal) was 78.4 µM. The GI50 (SF-295 CNS) was 60 µM, the TGI (SF-295 CNS) was 196 µM and the GI50 (OVCAR-3 ovarian) was 21.1 µM. The TGI (OVCAR-3 ovarian) was 42.8 µM, the GI50 (HT29 colon) was 26.2 µM and the TGI (HT29 colon) was 61.6 µM. The GI50 (DU-145 prostate) was 69.7 µM, the TGI (DU-145 prostate) was 207 µM and the GI50 (UACC-62 melanoma) was 26.8 µM. It also gave a TGI (UACC-62 melanoma) of 77 µM, a GI50 (ACHN renal) of 16.9 µM and a TGI (ACHN renal) of 31.7 µM. For the same compound, the GI50 (RPMI-8226 leukemia) was 25.3 µM and the TGI (RPMI-8226 leukemia) was 61 µM.

Work on `CN(c1ccc(NC(=O)NCCN2CCOCC2)cc1)c1ccnc(Nc2ccc(CS(C)(=O)=O)cc2)n1` yielded a GI50 (UO-31 renal) greater than 25 µM, a TGI (UO-31 renal) greater than 25 µM and a GI50 (UACC-257 melanoma) greater than 25 µM. It also gave a TGI (UACC-257 melanoma) greater than 25 µM, a GI50 (SN12C renal) greater than 25 µM and a TGI (SN12C renal) greater than 25 µM. The GI50 (SF-295 CNS) was greater than 25 µM, the TGI (SF-295 CNS) was greater than 25 µM and the GI50 (OVCAR-3 ovarian) was greater than 25 µM. It also gave a TGI (OVCAR-3 ovarian) greater than 25 µM, a GI50 (HT29 colon) greater than 25 µM and a TGI (HT29 colon) greater than 25 µM. For the same compound, the GI50 (DU-145 prostate) was greater than 25 µM, the TGI (DU-145 prostate) was greater than 25 µM and the GI50 (UACC-62 melanoma) was greater than 25 µM. The TGI (UACC-62 melanoma) was greater than 25 µM, the GI50 (ACHN renal) was greater than 25 µM and the TGI (ACHN renal) was greater than 25 µM. For the same compound, the GI50 (RPMI-8226 leukemia) was greater than 25 µM and the TGI (RPMI-8226 leukemia) was greater than 25 µM.

`O=C1c2ccccc2-c2c1c1ccc([N+](=O)[O-])cc1c(=O)n2CCCCl` was tested, and the GI50 (UO-31 renal) was 6.4 µM, the TGI (UO-31 renal) was greater than 100 µM and the GI50 (UACC-257 melanoma) was greater than 100 µM. It also gave a TGI (UACC-257 melanoma) greater than 100 µM, a GI50 (SN12C renal) of 27.1 µM and a TGI (SN12C renal) greater than 100 µM. It also gave a GI50 (SF-295 CNS) of 2.25 µM, a TGI (SF-295 CNS) greater than 100 µM and a GI50 (OVCAR-3 ovarian) of 4.91 µM. The TGI (OVCAR-3 ovarian) was 77 µM, the GI50 (HT29 colon) was 65 µM and the TGI (HT29 colon) was greater than 100 µM. For the same compound, the GI50 (DU-145 prostate) was 40.4 µM, the TGI (DU-145 prostate) was greater than 100 µM and the GI50 (UACC-62 melanoma) was 20.3 µM. The TGI (UACC-62 melanoma) was greater than 100 µM, the GI50 (ACHN renal) was 4.29 µM and the TGI (ACHN renal) was greater than 100 µM. It also gave a GI50 (RPMI-8226 leukemia) of 1.36 µM and a TGI (RPMI-8226 leukemia) of 33.3 µM.

Compound `Cc1n(Cc2ccc3ccccc3n2)cc[n+]1Cc1ccc2ccccc2c1` has a GI50 (UO-31 renal) of 13.6 µM, a TGI (UO-31 renal) of 36.1 µM and a GI50 (UACC-257 melanoma) of 0.506 µM. For the same compound, the TGI (UACC-257 melanoma) was 2.89 µM, the GI50 (SN12C renal) was 0.518 µM and the TGI (SN12C renal) was 11 µM. For the same compound, the GI50 (SF-295 CNS) was 1.47 µM, the TGI (SF-295 CNS) was 7.62 µM and the GI50 (OVCAR-3 ovarian) was 0.515 µM. It also gave a TGI (OVCAR-3 ovarian) of 5.1 µM, a GI50 (HT29 colon) of 0.454 µM and a TGI (HT29 colon) of 9.61 µM. It also gave a GI50 (DU-145 prostate) of 2.08 µM, a TGI (DU-145 prostate) of 14.8 µM and a GI50 (UACC-62 melanoma) of 0.933 µM. The TGI (UACC-62 melanoma) was 3.61 µM, the GI50 (ACHN renal) was 9.46 µM and the TGI (ACHN renal) was 46.4 µM. For the same compound, the GI50 (RPMI-8226 leukemia) was 0.376 µM and the TGI (RPMI-8226 leukemia) was 6.63 µM.

`CCN(CC)CCS(=O)(=O)CCNc1ccnc2cc(Cl)ccc12` was tested, and the GI50 (UO-31 renal) was 0.682 µM, the TGI (UO-31 renal) was 8.8 µM and the GI50 (UACC-257 melanoma) was 5.13 µM. For the same compound, the TGI (UACC-257 melanoma) was 26.1 µM, the GI50 (SN12C renal) was 3.25 µM and the TGI (SN12C renal) was greater than 100 µM. It also gave a GI50 (SF-295 CNS) of 8.38 µM, a TGI (SF-295 CNS) greater than 64 µM and a GI50 (OVCAR-3 ovarian) of 1.47 µM. It also gave a TGI (OVCAR-3 ovarian) of 15.3 µM, a GI50 (HT29 colon) of 0.868 µM and a TGI (HT29 colon) of 2.29 µM. The GI50 (DU-145 prostate) was 2.43 µM, the TGI (DU-145 prostate) was greater than 32.8 µM and the GI50 (UACC-62 melanoma) was 3.83 µM. The TGI (UACC-62 melanoma) was 29.6 µM, the GI50 (ACHN renal) was 1.49 µM and the TGI (ACHN renal) was 29.8 µM. For the same compound, the GI50 (RPMI-8226 leukemia) was 1.41 µM and the TGI (RPMI-8226 leukemia) was 21.6 µM.

Compound `CCc1ccc(C2=NN(c3ccc(S(C)(=O)=O)cc3)C(=O)CC2)cc1` has a GI50 (UO-31 renal) of 4.89 µM, a TGI (UO-31 renal) greater than 100 µM and a GI50 (UACC-257 melanoma) of 1.68 µM. The TGI (UACC-257 melanoma) was 55.3 µM, the GI50 (SN12C renal) was 7.34 µM and the TGI (SN12C renal) was greater than 100 µM. The GI50 (SF-295 CNS) was 0.904 µM, the TGI (SF-295 CNS) was 8.54 µM and the GI50 (OVCAR-3 ovarian) was 0.385 µM. The TGI (OVCAR-3 ovarian) was 2.36 µM, the GI50 (HT29 colon) was 0.411 µM and the TGI (HT29 colon) was 13.4 µM. The GI50 (DU-145 prostate) was 2.67 µM, the TGI (DU-145 prostate) was greater than 26.8 µM and the GI50 (UACC-62 melanoma) was 0.603 µM. It also gave a TGI (UACC-62 melanoma) greater than 100 µM, a GI50 (ACHN renal) of 8.48 µM and a TGI (ACHN renal) greater than 100 µM. It also gave a GI50 (RPMI-8226 leukemia) of 3.97 µM and a TGI (RPMI-8226 leukemia) greater than 57.6 µM.

`Cc1cn2c(/C=C3/C(=O)Nc4ccc(C(=O)O)cc43)c(C)nc2s1` showed a GI50 (UO-31 renal) greater than 100 µM, a TGI (UO-31 renal) greater than 100 µM and a GI50 (UACC-257 melanoma) greater than 100 µM. For the same compound, the TGI (UACC-257 melanoma) was greater than 100 µM, the GI50 (SN12C renal) was greater than 100 µM and the TGI (SN12C renal) was greater than 100 µM. The GI50 (SF-295 CNS) was greater than 100 µM, the TGI (SF-295 CNS) was greater than 100 µM and the GI50 (OVCAR-3 ovarian) was greater than 100 µM. It also gave a TGI (OVCAR-3 ovarian) greater than 100 µM, a GI50 (HT29 colon) greater than 100 µM and a TGI (HT29 colon) greater than 100 µM. For the same compound, the GI50 (DU-145 prostate) was greater than 100 µM, the TGI (DU-145 prostate) was greater than 100 µM and the GI50 (UACC-62 melanoma) was greater than 100 µM. The TGI (UACC-62 melanoma) was greater than 100 µM, the GI50 (ACHN renal) was greater than 100 µM and the TGI (ACHN renal) was greater than 100 µM. The GI50 (RPMI-8226 leukemia) was greater than 100 µM and the TGI (RPMI-8226 leukemia) was greater than 100 µM.

`O=c1c2ccccc2n2cnc3ccc(NCCNCCO)c1c32` was tested, and the TGI (UO-31 renal) was 11.6 µM, the TGI (UACC-257 melanoma) was 13.2 µM and the TGI (SN12C renal) was 17 µM. The TGI (SF-295 CNS) was 9.2 µM, the TGI (OVCAR-3 ovarian) was 9.82 µM and the TGI (HT29 colon) was 6.84 µM. For the same compound, the TGI (DU-145 prostate) was 3.31 µM, the TGI (UACC-62 melanoma) was 7.27 µM and the TGI (ACHN renal) was 7.42 µM. The TGI (RPMI-8226 leukemia) was 17 µM.

For `C=CC[PH+](c1ccccc1)c1ccccc1.C=CC[PH+](c1ccccc1)c1ccccc1.[Pt+2].[S-]c1ncccn1.[S-]c1ncccn1`, the GI50 (UO-31 renal) was 3.75 µM, the TGI (UO-31 renal) was 18 µM and the GI50 (UACC-257 melanoma) was 11.6 µM. For the same compound, the TGI (UACC-257 melanoma) was 37.2 µM, the GI50 (SN12C renal) was 13.5 µM and the TGI (SN12C renal) was 48.6 µM. For the same compound, the GI50 (SF-295 CNS) was greater than 100 µM, the TGI (SF-295 CNS) was greater than 100 µM and the GI50 (OVCAR-3 ovarian) was 2.88 µM. The TGI (OVCAR-3 ovarian) was 9.49 µM, the GI50 (HT29 colon) was 13.5 µM and the TGI (HT29 colon) was greater than 100 µM. For the same compound, the GI50 (DU-145 prostate) was 23.9 µM, the TGI (DU-145 prostate) was greater than 100 µM and the GI50 (UACC-62 melanoma) was 8.06 µM. The TGI (UACC-62 melanoma) was 24.8 µM, the GI50 (ACHN renal) was 2.14 µM and the TGI (ACHN renal) was 5.31 µM. The GI50 (RPMI-8226 leukemia) was 3.16 µM and the TGI (RPMI-8226 leukemia) was 17.4 µM.
